pKd: −log10 of the molar value. No end group written: not given here.
How the values were obtained:
Type in all cases: binding
[1] = molecular target: T1, Boi2 SH3 domain (GST-fused) (Saccharomyces cerevisiae, UniProt P39969); assay: Surface plasmon resonance (BIAcoreX) dissociation constants of peptides, Boi2 SH3 domain; conditions: Figure 4A; SPR BIAcoreX, GST-SH3 coupled to CM5 chip, GST control; peptides in 10 mM HEPES, 150 mM NaCl, 3.4 mM EDTA, 0.005% P20, pH 7.4, 25°C; steady-state model; read-out: dissociation constant, SH3 DOMAINS BOI2
T1 construct: Experiments were carried out on sensor chips with GST-fused SH3 domains and GST as a control; made in house
T1 sequence (P39969 43-107 limits assumed): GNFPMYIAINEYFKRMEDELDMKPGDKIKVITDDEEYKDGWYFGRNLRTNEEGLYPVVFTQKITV
Method: (§1) Figure 4 Measurement of Dissociation Constants and Correlation with SPOT Intensities (A) Dissociation constants were measured with a BIAcoreX instrument as described in the Materials and Methods. The experiments with the Abp1 SH3 domain were carried out in triplicate. (B) Normalized BLU intensities plotted as a function of the log of the dissociation constant.
(§2) Surface plasmon resonance measurements were carried out with a BIAcoreX instrument (BIAcore, Uppsala, Sweden). Experiments were carried out on sensor chips with GST-fused SH3 domains and GST as a control. […] Interaction analysis was performed at 25°C with the peptides dissolved in 10 mM HEPES, 150 mM NaCl, 3.4 mM EDTA, and 0.005% surfactant P20 (pH 7.4), at 15 μl/min flow rate, using six to seven dilutions, ranging from 500 μM to 65 nM. Dissociation constant values were evaluated by applying the steady-state model using BIAcore evalution 3.1 software.

[2] = molecular target: T2, Ysc84 SH3 domain (GST-fused) (Saccharomyces cerevisiae, UniProt P32793); assay: Surface plasmon resonance (BIAcoreX) dissociation constants of peptides, Ysc84 SH3 domain; conditions: Figure 4A; SPR BIAcoreX, GST-SH3 coupled to CM5 chip, GST control; peptides in 10 mM HEPES, 150 mM NaCl, 3.4 mM EDTA, 0.005% P20, pH 7.4, 25°C; steady-state model; read-out: dissociation constant, SH3 DOMAINS YSC84
T2 construct: Experiments were carried out on sensor chips with GST-fused SH3 domains and GST as a control; made in house
T2 sequence (P32793 409-468 limits assumed): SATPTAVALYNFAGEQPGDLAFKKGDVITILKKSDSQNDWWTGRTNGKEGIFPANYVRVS
Method: as §1, §2

[3] = molecular target: T3, Yfr024c SH3 domain (GST-fused) (Saccharomyces cerevisiae, UniProt P43603); assay: Surface plasmon resonance (BIAcoreX) dissociation constants of peptides, Yfr024c SH3 domain; conditions: Figure 4A; SPR BIAcoreX, GST-SH3 coupled to CM5 chip, GST control; peptides in 10 mM HEPES, 150 mM NaCl, 3.4 mM EDTA, 0.005% P20, pH 7.4, 25°C; steady-state model; read-out: dissociation constant, SH3 DOMAINS YFR024C
T3 construct: Experiments were carried out on sensor chips with GST-fused SH3 domains and GST as a control; made in house
T3 sequence (P43603 400-459 limits assumed): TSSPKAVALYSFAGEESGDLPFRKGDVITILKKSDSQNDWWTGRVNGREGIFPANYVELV
Method: as §1, §2

[4] = molecular target: T4, Rvs167 SH3 domain (GST-fused) (Saccharomyces cerevisiae, UniProt P39743); assay: Surface plasmon resonance (BIAcoreX) dissociation constants of peptides, Rvs167 SH3 domain; conditions: Figure 4A; SPR BIAcoreX, GST-SH3 coupled to CM5 chip, GST control; peptides in 10 mM HEPES, 150 mM NaCl, 3.4 mM EDTA, 0.005% P20, pH 7.4, 25°C; steady-state model; read-out: dissociation constant, SH3 DOMAINS RVS167
T4 construct: Experiments were carried out on sensor chips with GST-fused SH3 domains and GST as a control; made in house
T4 sequence (P39743 421-482 limits assumed): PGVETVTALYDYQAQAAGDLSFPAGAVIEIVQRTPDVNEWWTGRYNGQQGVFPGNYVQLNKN
Method: as §1, §2

Sequence | pKd [1] | pKd [2] | pKd [3] | pKd [4]
DIKTRSVPKIPSIE [DEM1 DIKTRSVPKIPSIE] | < 4.00 | < 4.00 | < 4.00 | < 4.00
GKDKSRPPRPPPKP [PK1 GKDKSRPPRPPPKP] |  |  |  | < 4.00
GTTNRGPPPLPPRA [ACF2 GTTNRGPPPLPPRA] | < 4.00 | 5.96 | 5.77 | 5.20
NAPERAVPILPPRN [YBR108W NAPERAVPILPPRN] | < 4.00 | 4.89 | 5.38 | 4.25
NIQPDLPPRKIMIP [YBR239C NIQPDLPPRKIMIP] | < 4.00 | 4.80 | 4.66 | 4.41
PQQNRPLPQLPNRN [LAS17 PQQNRPLPQLPNRN] | < 4.00 | 4.57 | 4.72 | 4.49
RAVPILPPRNNVEP [YBR108W RAVPILPPRNNVEP] | < 4.00 | 4.89 | 4.85 | 4.41
RGPPPLPPRANVQP [ACF2 RGPPPLPPRANVQP] | < 4.00 | 5.80 | 5.89 | 
RPKRRAPPPVPKKP [YIR003 RPKRRAPPPVPKKP] |  |  |  | 4.89
RPLPQLPNRNNRPV [LAS17 RPLPQLPNRNNRPV] | < 4.00 | 5.02 | 5.05 | 4.52
SGPPLLPPRNTMKN [YJR083C SGPPLLPPRNTMKN] | < 4.00 | 5.30 | 5.46 | 4.80
SSPPPLPTRRDHIK [YPR171 SSPPPLPTRRDHIK] | < 4.00 | 5.48 | 5.32 | 4.80
STPPTLPPRRIEDP [YMR192 STPPTLPPRRIEDP] | < 4.00 | 5.04 | 4.96 | 4.55

— PMC314469, “Protein Interaction Networks by Proteome Peptide Scanning” (PLoS Biology, 2004)
